Reference: paper PMC6253949, “The Inhibitory Action of Kohamaic Acid A Derivatives on Mammalian DNA Polymerase β” (Molecules, 2008)

Target: Calf Primase of DNA polymerase α (Bos taurus, UniProt A0A3Q1MF00+A0JNF4)
Assay: Primase activity assay of calf pol α
Type: biochemical
Procedure: The primase activity of calf pol α, the activities of T7 RNA polymerase, T4 polynucleotide kinase and bovine DNase I were measured in standard assays according to the manufacturer's specifications as described by Tamiya-Koizumi et al., Nakayama et al., Soltis et al., and Lu and Sakaguchi, respectively.

Chain of Calf Primase of DNA polymerase α (A0AAA9THK8 entry or part of it): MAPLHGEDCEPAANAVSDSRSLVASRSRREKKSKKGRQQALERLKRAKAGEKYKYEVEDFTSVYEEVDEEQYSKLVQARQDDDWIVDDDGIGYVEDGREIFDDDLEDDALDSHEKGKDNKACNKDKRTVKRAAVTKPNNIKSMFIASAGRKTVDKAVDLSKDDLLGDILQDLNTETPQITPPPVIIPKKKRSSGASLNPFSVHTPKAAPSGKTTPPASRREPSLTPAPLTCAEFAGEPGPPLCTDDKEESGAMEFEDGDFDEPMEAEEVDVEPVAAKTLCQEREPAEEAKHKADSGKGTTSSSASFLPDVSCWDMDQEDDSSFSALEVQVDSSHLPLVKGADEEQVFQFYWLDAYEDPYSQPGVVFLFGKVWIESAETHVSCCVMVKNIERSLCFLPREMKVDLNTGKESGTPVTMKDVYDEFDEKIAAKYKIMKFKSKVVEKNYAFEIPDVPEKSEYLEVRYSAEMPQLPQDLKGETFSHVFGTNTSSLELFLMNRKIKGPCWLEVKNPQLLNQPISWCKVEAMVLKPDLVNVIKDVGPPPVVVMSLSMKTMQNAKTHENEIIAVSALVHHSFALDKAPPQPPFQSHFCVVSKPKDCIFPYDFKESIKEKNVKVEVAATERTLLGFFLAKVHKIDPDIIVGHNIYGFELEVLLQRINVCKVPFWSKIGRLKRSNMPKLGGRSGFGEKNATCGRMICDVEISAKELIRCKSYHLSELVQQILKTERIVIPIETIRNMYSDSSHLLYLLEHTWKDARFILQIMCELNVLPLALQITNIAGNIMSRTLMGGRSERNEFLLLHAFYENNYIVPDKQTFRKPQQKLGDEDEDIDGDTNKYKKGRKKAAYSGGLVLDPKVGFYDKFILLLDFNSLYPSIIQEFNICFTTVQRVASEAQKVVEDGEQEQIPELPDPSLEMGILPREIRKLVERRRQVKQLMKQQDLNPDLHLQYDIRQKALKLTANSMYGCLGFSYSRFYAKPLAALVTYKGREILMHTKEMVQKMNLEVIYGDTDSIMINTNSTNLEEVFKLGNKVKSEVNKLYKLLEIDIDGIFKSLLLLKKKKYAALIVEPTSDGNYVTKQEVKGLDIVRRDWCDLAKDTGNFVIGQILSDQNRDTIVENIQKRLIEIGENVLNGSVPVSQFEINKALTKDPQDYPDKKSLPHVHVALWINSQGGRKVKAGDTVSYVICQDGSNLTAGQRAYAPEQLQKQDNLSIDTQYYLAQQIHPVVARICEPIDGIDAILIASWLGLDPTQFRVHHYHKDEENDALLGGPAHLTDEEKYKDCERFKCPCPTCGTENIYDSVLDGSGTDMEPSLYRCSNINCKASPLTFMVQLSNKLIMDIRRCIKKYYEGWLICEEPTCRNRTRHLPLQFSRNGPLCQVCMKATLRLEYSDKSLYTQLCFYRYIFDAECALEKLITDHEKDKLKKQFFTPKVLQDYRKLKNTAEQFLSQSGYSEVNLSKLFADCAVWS
Chain of Calf Primase of DNA polymerase α (A0JNF4 entry or part of it): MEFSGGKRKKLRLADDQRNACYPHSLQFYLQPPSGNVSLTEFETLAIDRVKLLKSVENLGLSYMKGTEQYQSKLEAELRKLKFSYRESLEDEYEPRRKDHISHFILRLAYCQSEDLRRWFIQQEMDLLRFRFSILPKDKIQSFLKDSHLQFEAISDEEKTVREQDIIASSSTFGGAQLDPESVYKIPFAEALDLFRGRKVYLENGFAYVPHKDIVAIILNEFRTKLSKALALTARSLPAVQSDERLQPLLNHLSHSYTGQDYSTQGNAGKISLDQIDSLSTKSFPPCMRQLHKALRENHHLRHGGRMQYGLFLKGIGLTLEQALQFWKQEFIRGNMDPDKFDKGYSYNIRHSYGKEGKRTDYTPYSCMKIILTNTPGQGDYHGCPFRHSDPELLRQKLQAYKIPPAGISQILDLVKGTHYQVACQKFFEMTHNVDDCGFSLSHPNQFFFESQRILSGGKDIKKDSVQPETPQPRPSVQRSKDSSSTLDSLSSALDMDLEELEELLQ
Chain of Calf Primase of DNA polymerase α (Q58D13 whole entry, further chain): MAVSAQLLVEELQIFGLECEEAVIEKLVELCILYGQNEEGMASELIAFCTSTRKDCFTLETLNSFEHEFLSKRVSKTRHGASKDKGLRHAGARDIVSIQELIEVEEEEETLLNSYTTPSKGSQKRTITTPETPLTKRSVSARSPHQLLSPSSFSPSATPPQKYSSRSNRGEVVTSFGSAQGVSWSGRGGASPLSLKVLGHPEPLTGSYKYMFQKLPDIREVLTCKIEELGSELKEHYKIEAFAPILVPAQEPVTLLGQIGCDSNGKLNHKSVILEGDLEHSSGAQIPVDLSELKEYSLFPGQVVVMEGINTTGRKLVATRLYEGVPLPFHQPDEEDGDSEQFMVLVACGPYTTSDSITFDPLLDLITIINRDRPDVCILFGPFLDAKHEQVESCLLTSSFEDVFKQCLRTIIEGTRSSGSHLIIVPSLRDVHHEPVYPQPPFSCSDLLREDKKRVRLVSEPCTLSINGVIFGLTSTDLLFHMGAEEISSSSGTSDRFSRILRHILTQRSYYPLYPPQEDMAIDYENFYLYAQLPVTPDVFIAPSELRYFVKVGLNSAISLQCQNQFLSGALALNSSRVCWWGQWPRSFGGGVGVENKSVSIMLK
Chain of Calf Primase of DNA polymerase α (A0A3Q1MF00 entry or part of it): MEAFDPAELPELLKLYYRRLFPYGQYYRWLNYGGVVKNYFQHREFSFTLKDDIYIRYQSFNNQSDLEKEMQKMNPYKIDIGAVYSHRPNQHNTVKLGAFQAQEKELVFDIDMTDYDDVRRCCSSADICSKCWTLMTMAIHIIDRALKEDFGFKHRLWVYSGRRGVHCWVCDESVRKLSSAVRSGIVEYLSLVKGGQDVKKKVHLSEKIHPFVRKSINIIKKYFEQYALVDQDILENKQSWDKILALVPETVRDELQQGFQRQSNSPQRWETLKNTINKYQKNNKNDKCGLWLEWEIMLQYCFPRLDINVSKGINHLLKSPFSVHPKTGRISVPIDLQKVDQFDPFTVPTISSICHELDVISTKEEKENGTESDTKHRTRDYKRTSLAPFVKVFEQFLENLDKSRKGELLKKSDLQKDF

CC1=CC[C@H]2C(C)(C)CCC[C@]2(C)[C@H]1CCCCCCCCCCCCCCCCC(=O)O (relative stereo) [compound 11, (1S*,4aS*,8aS*)-17-(1,4,4a,5,6,7,8,8a-octahydro-2,5,5,8a-tetramethylnaphthalen-1-yl)heptadecanoic acid]
IC50: > 200 µM
